Results: US20230390247A1, “BIPHENYL PYRROLIDINE AND BIPHENYL DIHYDROIMIDAZOLE DERIVATIVES FOR INHIBITING ACTIVITY OF 5-HT7 SEROTONIN RECEPTOR, AND PHARMACEUTICAL COMPOSITION COMPRISING SAME AS ACTIVE INGREDIENT” (priority 2020, published 2023)

What was measured:
5-HT7R [1] = molecular target: T1, 5-HT7R (Homo sapiens (Human), UniProt P34969); experiment: cAMP assay (luminescence-based, GloSensor); type: cell-based; details: HEK293 cells transfected with human 5-HT7R and GloSensor-22F
Experimental: For luminescence-based cAMP assay, HEK293 cells were cultured on a 150-mm dish. Prior to transfection, the culture medium was replaced from DMEM containing 10% FBS, 100 U/mL penicillin and 100 μg/mL streptomycin to DMEM containing 10% dialyzed FBS, 100 U/mL penicillin and 100 μg/mL streptomycin. 4 hours later, transfection was conducted using 10 μg of a human 5-HT7R plasmid and 10 μg of a GloSensor-22F plasmid (Promega). The transfected cells were prepared on a white, flat, clear-bottom, 384-well plate (Greiner) (15,000 cells/well, 20 μL/well). 6 hours later, after removing the culture medium, the cells were treated with 20 μL of a 3% Glosensor cAMP reagent containing luciferin in a 1×HBSS, […], pH 7.4 buffer. In addition, the compound of each of the examples was prepared at different concentrations in an assay buffer containing 0.1% bovine serum albumin. 30 minutes later, 10 μL of the compound solution was treated to the cells. After measuring luminescence using a Tecan microplate reader (Spark), IC50 value was obtained using the Prism 8.0 program (GraphPad Software).

5-HT7R [2] = molecular target: T1, 5-HT7R; experiment: Tango assay (β-arrestin signaling system); type: cell-based; details: HTLA cells transfected with 5-HT7R-TCS-tTA construct
Experimental: Tango assay was conducted using HTLA cells in order to investigate the activity of the β-arrestin signaling system. Prior to transfection, the culture medium was replaced from DMEM containing 10% FBS, 100 U/mL penicillin, 100 μg/mL streptomycin, 2 μg/mL puromycin and 100 μg/mL hygromycin B to DMEM containing 10% dialyzed FBS, 100 U/mL penicillin and 100 μg/mL streptomycin. 4 hours later, transfection was conducted using 20 μg of a 5-HT7R-TCS-tTA construct (5-HT7R Tango DNA). The transfected cells were prepared on a white, flat, clear-bottom, 384-well plate (Greiner) (15,000 cells/well, 20 μL/well) using DMEM containing 10% dialyzed FBS, 100 U/mL penicillin and 100 μg/mL streptomycin. 6 hours later, after removing the culture medium, the cells were treated with 10 μL of the compound solution. After culturing for 22 hours and removing the culture medium, the cells were treated with 20 μL of a BrightGlo reagent (Promega) diluted in a 1×HBSS, […], pH 7.4 buffer. After measuring luminescence using a Tecan microplate reader (Spark), IC50 value was obtained using the Prism 8.0 program (GraphPad Software).

T1 sequence (P34969 whole entry): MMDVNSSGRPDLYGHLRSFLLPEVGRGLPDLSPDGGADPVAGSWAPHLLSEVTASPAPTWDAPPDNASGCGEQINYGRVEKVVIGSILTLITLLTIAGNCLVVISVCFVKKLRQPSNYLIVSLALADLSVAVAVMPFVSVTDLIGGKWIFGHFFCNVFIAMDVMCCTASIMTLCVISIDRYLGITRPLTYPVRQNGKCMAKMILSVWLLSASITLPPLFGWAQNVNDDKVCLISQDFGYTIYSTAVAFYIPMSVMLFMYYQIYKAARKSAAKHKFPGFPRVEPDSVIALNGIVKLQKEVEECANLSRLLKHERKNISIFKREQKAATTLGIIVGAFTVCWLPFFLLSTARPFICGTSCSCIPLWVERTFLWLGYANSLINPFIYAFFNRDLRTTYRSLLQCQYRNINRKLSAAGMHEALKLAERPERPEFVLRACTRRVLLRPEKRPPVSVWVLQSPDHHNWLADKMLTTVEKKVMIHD

Compound	inhibition at 10 µM (5-HT7R [1]) [%]	inhibition at 10 µM (5-HT7R [2]) [%]	IC50 (5-HT7R [2]) [µM]	IC50 (5-HT7R [1]) [µM]
COc1ccc(-c2cccc(CN3CCCC3)c2)cc1 [Compound 10, 1-((4′-methoxy-[1,1′-biphenyl]-3-yl)methyl)pyrrolidine]	37.9	23.1	–	–
COc1ccccc1-c1cc(CN2CCCC2)ccc1Cl [Compound 19, 1-((6-chloro-2′-methoxy-[1,1′-biphenyl]-3-yl)methyl)pyrrolidine]	51.8	19.7	–	–
COc1cccc(-c2cccc(CN3CCCC3)c2)c1 [Compound 9, 1-((3′-methoxy-[1,1′-biphenyl]-3-yl)methyl)pyrrolidine]	67.2	16.7	–	6.44
COc1cccc(OC)c1-c1cccc(CN2CCCC2)c1 [Compound 11, 1-((2′,6′-dimethoxy-[1,1′-biphenyl]-3-yl)methyl)pyrrolidine]	32.8	5.1	–	–
c1ccc(-c2cccc(CN3CCCC3)c2)cc1 [Compound 1, 1-([1,1′-biphenyl]-3-ylmethyl)pyrrolidine]	42.1	17.5	22.9	–
Clc1ccc(CN2CCCC2)cc1-c1ccccc1 [Compound 12, 1-((6-chloro-[1,1′-biphenyl]-3-yl)methyl)pyrrolidine]	80.8	26.1	–	4.89
Clc1cccc(-c2cc(CN3CCCC3)ccc2Cl)c1 [Compound 14, 1-((3′,6-dichloro-[1,1′-biphenyl]-3-yl)methyl)pyrrolidine]	51.1	27.9	–	–
COc1ccccc1-c1c(Cl)ccc(CN2CCCC2)c1OC [Compound 22, 1-((6-chloro-2,6′-dimethoxy-[1,1′-biphenyl]-3-yl)methyl)pyrrolidine]	42.7	3.3	–	–
Cc1cccc(-c2cccc(CN3CCCC3)c2)c1 [Compound 6, 1-((3′-methyl-[1,1′-biphenyl]-3-yl)methyl)pyrrolidine]	38.9	22	–	–
Clc1ccc(-c2cc(CN3CCCC3)ccc2Cl)cc1 [Compound 15, 1-((4′,6-dichloro-[1,1′-biphenyl]-3-yl)methyl)pyrrolidine]	63.8	34.3	–	7.15
Cc1cccc(-c2cccc(C3=NCCN3)c2)c1 [Compound 28, 2-(3′-methyl-[1,1′-biphenyl]-3-yl)-4,5-dihydro-1H-imidazole]	44.6	28.8	–	–
Cc1ccccc1-c1cc(CN2CCCC2)ccc1Cl [Compound 16, 1-((6-chloro-2′-methyl-[1,1′-biphenyl]-3-yl)methyl)pyrrolidine]	73.3	30.9	–	6.42

Further lines, with some results ahead:

inhibition at 10 µM (5-HT7R [1]) [%]	inhibition at 10 µM (5-HT7R [2]) [%]	IC50 (5-HT7R [2]) [µM]	Compound	IC50 (5-HT7R [1]) [µM]
35.2	17.2	–	Cc1ccc(-c2cccc(C3=NCCN3)c2)cc1 [Compound 29, 2-(4′-methyl-[1,1′-biphenyl]-3-yl)-4,5-dihydro-1H-imidazole]	–
51.4	31.7	–	Cc1ccccc1-c1cc(C2=NCCN2)ccc1Cl [Compound 38, 2-(6-chloro-2′-methyl-[1,1′-biphenyl]-3-yl)-4,5-dihydro-1H-imidazole]	–
48.4	9.8	–	COc1cccc(OC)c1-c1cc(C2=NCCN2)ccc1Cl [Compound 44, 2-(6-chloro-2′,6′-dimethoxy-[1,1′-biphenyl]-3-yl)-4,5-dihydro-1H-imidazole]	–
53.8	42	20.4	Clc1ccccc1-c1cc(C2=NCCN2)ccc1Cl [Compound 35, 2-(2′,6-dichloro-[1,1′-biphenyl]-3-yl)-4,5-dihydro-1H-imidazole]	–
40.8	11.9	–	COc1ccc(-c2cccc(C3=NCCN3)c2)cc1 [Compound 32, 2-(4′-methoxy-[1,1′-biphenyl]-3-yl)-4,5-dihydro-1H-imidazole]	–
